# Results published in patent US20190083497A1, “MODULATION OF BLOOD BRAIN BARRIER PERMEABILITY” (Cornell University, priority 2008, published 2019).
# Legend:
# blood brain barrier [1] = assay: Evans Blue dye extravasation across the blood brain barrier after single i.v. treatment; format: in vivo, mouse; conditions: 100 μl 0.01 nM single i.v. one hour before dye, brain harvested four hours after dye
# Description: The objective of this experiment was to determine if the blood brain barrier could be modulated by activation of adenosine receptors. NECA is a non-selective adenosine receptor agonist, with similar affinities for A1, A2a and A3 adenosine receptors and a low affinity for the A2b adenosine receptor. In order to determine if activation of adenosine receptors would induce extravasation of Evans Blue dye across the blood brain barrier (BBB), mice were treated with: NECA, a non-selective adenosine receptor agonist (n=5, 100 μl 0.01 nM); SCH58261, an A2a adenosine receptor specific antagonist (n=5, 1 mg/kg); pertussis toxin, an agent known to induce BBB leakiness and as such used as a positive control (n=7, 200 μl); and, PBS as a vehicle control (n=5, 100 μl). CD73^−/− mice, which lack the ability to produce extracellular adenosine, were also treated with NECA (n=4, 100 μl 0.01 nM). Treatments were administered as a single i.v. injection one hour prior to i.v. injection of 200 μl 1% Evans Blue dye ([…] total dye injected). Four hours after administration of Evans Blue, mice were anesthetized with a ketamine/xylazine mix and perfused via the left ventricle with ice cold PBS. […] Following extraction, the tissue/solvent mixture was centrifuged at 500×g for 30 minutes and 100 μl of supernatant was read on a BioTex spectrophotometer at 620 nm. Data is expressed as μg Evans Blue/ml DMF.
# hCMEC/D3 cells [2] = assay: Jurkat cell migration across hCMEC/D3 transwell in vitro BBB; format: cell-based, human; conditions: hCMEC/D3 on Transwell; migrated cells counted after 24 hours
# Description: The blood brain barrier (BBB) is comprised of endothelial cells. During late stages of EAE, lymphocytes are known to cross the BBB. In order to determine if adenosine receptor stimulation of brain endothelial cells could promote lymphocyte migration through the BBB, an in vitro BBB was established. The human brain endothelial cell line hCMEC/D3 (Weksler et al., “Blood-brain Barrier-specific Properties of a Human Adult Brain Endothelial Cell Line,” J. Neurochem. 19(13):1872-4 (2005); Poller et al., “The Human Brain Endothelial Cell Line hCMEC/D3 as a Human Blood-brain Barrier Model for Drug Transport Studies,” J. Neurochem. 107(5):1358-1368 (2008), which are hereby incorporated by reference in their entirety) was obtained, which has been previously described as having BBB properties.
# hCMEC/D3 cells were seeded onto Transwell and allowed to grow to confluencey. 2×10^6 Jurkat cells were added to the upper chamber with or without NECA (general adenosine receptor [AR] agonist), CCPA (A1AR agonist), CGS 21680 (A2AAR agonist), or DMSO vehicle. After 24 hours, migrated cells in the lower chamber were counted. Values are relative to the number of cells that migrate through non-HCMECD3 seeded transwells.
# hCMEC/D3 cells [3] = assay: cAMP levels in hCMEC/D3 cells (cAMP Screen kit); format: cell-based, human; conditions: 15 minutes treatment, various concentrations
# Description: Adenosine receptor activation regulates cAMP levels in cells. In order to determine the sensitivity of human brain endothelial cells to adenosine receptor induced cAMP regulation, human brain endothelial cells were cultured with adenosine receptor agonists at various concentrations, followed by cAMP level analysis, as shown in FIG. 13.
# HCMECD3 cells were grown to confluencey on 24 well plates. As adenosine receptor (“AR”) stimulation is known to influence cAMP levels, cells were treated with or without various concentrations of NECA (general AR agonist), CCPA (A1AR agonist), CGS 21680 (A2AAR agonist), DMSO vehicle, or Forksolin (induces cAMP). After 15 minutes, lysis buffer was added and the cells were frozen at −80 C to stop the reaction. Duplicate samples were used for each condition. cAMP levels were assayed using a cAMP Screen kit (Applied Biosystems, Foster City, Calif.).
# Z310 cells = assay: Jurkat cell migration across Z310 choroid plexus cell transwell; format: cell-based, murine; conditions: Z310 cells on Transwell; migrated cells counted after 24 hours; n=1
# Description: The choroid plexus (“CP”) controls lymphocyte migration into the CNS. The CP expresses the A1 and A2a adenosine receptors. EAE is prevented in mice when A2a adenosine receptor activity is blocked. EAE is enhanced when the A1 adenosine receptor is missing. It was hypothesized that A2a adenosine receptor activation promotes lymphocyte migration across the CP. Z310 cells are a murine choroid plexus cell line. To test the hypothesis, Transwell membranes were seeded with Z310 cells and allowed to grow to confluencey. 2×10^6 Jurkat cells were added to the upper chamber with or with out NECA (n=1, general AR agonist), CCPA (n=1, A1AR agonist), CGS 21680 (n=1, A2AAR agonist), or DMSO vehicle(n=1). After 24 hours, migrated cells in the lower chamber were counted. Values are relative to the number of cells that migrate through non-Z310 seeded transwells and the results are shown in FIG. 12.
# blood brain barrier [4] = assay: Evans Blue dye extravasation across the blood brain barrier in mice immunized for EAE; format: in vivo, mouse; conditions: WT EAE mice; 100 μl 0.01 nM on day 1, 3, 5, 7, 9; dye on day 10, brain harvested six hours later; vs PBS control EAE mice
# Description: In order to determine if activation of adenosine receptors would induce extravazation of Evans Blue dye across the blood brain barrier (BBB), mice were first treated on day one with NECA, a non-selective adenosine receptor agonist (n=2, 100 μl 0.01 nM); and, PBS as a vehicle control (n=2, 100 μl). On day 2 mice were then immunized with CFA-MOG35-55 and pertussis to induce EAE. Then NECA or PBS was administered every other day on day 3, day 5, day 7 and day 9. On day 10, mice were injected intravenously with 200 μl 1% Evans Blue dye ([…] total dye injected). Six hours after administration of Evans Blue, mice were anesthetized with a ketamine/xylazine mix and perfused via the left ventricle with ice cold PBS. Brains were harvested and homogenized in n,n-dimethylformamide (DMF) at 5 μl/mg (v:w). Tissue was incubated for 72 hours at room temperature in DMF to extract the dye. Following extraction, the tissue/solvent mixture was centrifuged at 500×g for 30 minutes and 100 μl of supernatant was read on a BioTex spectrophotometer at 620 nm.
structure (smiles),measurement,setting,value
CCNC(=O)[C@H]1O[C@@H](n2cnc3c(N)ncnc32)[C@H](O)[C@@H]1O [NECA],Evans Blue dye migration across the blood brain barrier,"blood brain barrier [1]; CD73-/- mice, vs PBS control",almost five fold increase in dye migration vs. the PBS control
same,Evans Blue dye migration across the blood brain barrier,"blood brain barrier [1]; WT mice, vs control mice",increase over control mice
same,lymphocyte (Jurkat) migration across the in vitro BBB,hCMEC/D3 cells [2],induced some migration
same,cAMP levels,hCMEC/D3 cells [3],increased cAMP levels
same,lymphocyte (Jurkat) migration across the CP,Z310 cells,induced migration
same,BBB permeability (Evans Blue dye migration into the CNS),blood brain barrier [4],increase in BBB permeability over PBS control EAE mice
